For the assay, the target named is T1, GPR119 (Homo sapiens, UniProt Q8TDV5).
T1 construct: host or cells: CHO-K1 (CRE-bla reporter, doxycycline-induced)
T1 sequence (Q8TDV5 1-335): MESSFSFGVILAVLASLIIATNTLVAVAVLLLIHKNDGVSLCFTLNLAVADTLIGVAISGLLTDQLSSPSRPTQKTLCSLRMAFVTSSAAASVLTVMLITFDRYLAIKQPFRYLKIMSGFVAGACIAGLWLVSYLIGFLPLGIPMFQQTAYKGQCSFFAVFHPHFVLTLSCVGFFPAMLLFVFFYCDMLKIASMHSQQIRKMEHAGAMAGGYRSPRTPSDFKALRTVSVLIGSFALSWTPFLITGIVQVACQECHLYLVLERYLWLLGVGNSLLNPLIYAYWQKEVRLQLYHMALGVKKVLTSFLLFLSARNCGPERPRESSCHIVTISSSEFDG
The assay can be described thus: Controlling Effect of GPR119 in CRE-bla CHO-K1 Cells (EC50). It is filed as cell-based. As to conditions: GPR119 CRE-bla CHO-K1 cell line, 5 hr incubation with compound, β-lactamase LiveBLAzer-FRET B/G readout; read-out: controlling effect against GPR119 in CRE-bla CHO-K1 cell line (EC50). The gist of the method: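 CHO-K1 cells carrying GPR119 and a CRE-β-lactamase reporter, induced with doxycycline for 16-20 h at 37° C, then exposed to compounds in 10-fold dilutions for 5 h. CCF4-AM FRET substrate added for 2 h at room temperature; blue/green fluorescence (409 ex, […]) read and EC50 derived.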
Take `CCN(c1ncnc2c(-c3ccc(S(C)(=O)=O)cc3)csc12)C1CCN(c2ccc(C(F)(F)F)cn2)CC1` [Example 115, Ethyl-[7-(4-methanesulfonyl-phenyl)-thieno[3,2-d]pyrimidin-4-yl]-(5′-trifluoromethyl-3,4,5,6-tetrahydro-2H-[1,2′]bipyridinyl-4-yl)amine]: the concentration for a half-maximal effect (EC50) is over 1000 nM.

Regarding `Cn1cc(-c2ccc(S(C)(=O)=O)cc2)c2ncnc(NC3CCN(C(=O)OC(C)(C)C)CC3)c21` [Example 116, tert-butyl 4-(5-methyl-7-(4-methanesulfonyl-phenyl)-5H-pyrrolo[3,2-d]pyrimidin-4-ylamino)piperidin-1-carboxylate], the EC50 was over 1000 nM.

For `CC(C)c1noc(C2CCN(c3ncnc4c(-c5ccc(S(C)(=O)=O)cc5)cn(C)c34)CC2)n1` [Example 117, 3-isopropyl-5-(1-(5-methyl-7-(4-methanesulfonyl-phenyl)-5H-pyrrolo[3,2-d]pyrimidin-4-yl)piperidin-4-yl)-1,2,4-oxadiazole], the EC50 was 100 to 1000 nM.

For the compound `CC(C)c1noc(C2CCN(c3ncnc4c(-c5ccc(-n6cnnn6)cc5)csc34)CC2)n1` [Example 118, 5-(1-(7-(4-(1H-tetrazol-1-yl)phenyl)thieno[3,2-d]pyrimidin-4-yl)piperidin-4-yl)-3-iso propyl-1,2,4-oxadiazole], the EC50 is 100 to 1000 nM.

Regarding `CC(C)(C)c1noc(N2CCC(Oc3ncnc4c(-c5ccc(-n6cncn6)cc5)csc34)CC2)n1` [Example 119, 5-(4-(7-(4-(1H-1,2,4-triazol-1-yl)phenyl)thieno[3,2-d]pyrimidin-4-yloxy)piperidin-1-yl)-3-tert-butyl-1,2,4-oxadiazole], the EC50 is under 100 nM.

With `Cn1cc(-c2ccc(-n3cnnn3)cc2)c2ncnc(OC3CCN(C(=O)OC(C)(C)C)CC3)c21` [Example 120, tert-butyl 4-(7-(4-(1H-tetrazol-1-yl)phenyl)-5-methyl-5H-pyrrolo[3,2-d]pyrimidin-4-yloxy)piperidin-1-carboxylate], the EC50 is under 100 nM.

Take `CCc1cnc(N2CCC(Oc3ncnc4c(-c5ccc(N)cc5)cn(C)c34)CC2)nc1` [Example 121, 4-(4-(1-(5-ethylpyrimidin-2-yl)piperidin-4-yloxy)-5-methyl-5H-pyrrolo[3,2-d]pyrimidin-7-yl)benzenamine]: the EC50 is over 1000 nM.

On to `CCc1cnc(N2CCC(Oc3ncnc4c(-c5ccc(-n6cnnn6)cc5)cn(C)c34)CC2)nc1` [Example 122, 7-(4-(1H-tetrazol-1-yl)phenyl)-4-(1-(5-ethylpyrimidin-2-yl)piperidin-4-yloxy)-5-methyl-5H-pyrrolo[3,2-d]pyrimidine], for which the EC50 is under 100 nM.

Turning to `Cn1cc(-c2ccc(-n3cnnn3)cc2)c2ncnc(OC3CCN(c4ncc(C(F)(F)F)cn4)CC3)c21` [Example 123, 7-(4-(1H-tetrazol-1-yl)phenyl)-5-methyl-4-(1-(5-(trifluoromethyl)pyrimidin-2-yl)piperidin-4-yloxy)-5H-pyrrolo[3,2-d]pyrimidine], the concentration giving a half-maximal response (EC50) is under 100 nM.

On to `Cn1cc(-c2ccc(-n3cnnn3)cc2)c2ncnc(O[C@H]3CCN(C(=O)OC(C)(C)C)C3)c21` [Example 125, (S)-tert-butyl 3-[5-methyl-7-(4-tetrazol-1-yl-phenyl)-5H-pyrrolo[3,2-d]pyrimidin-4-yloxy)pyrrolidin-1-carboxylate], for which the concentration giving a half-maximal response (EC50) is over 1000 nM.

A word on the EC50: it is the concentration giving half of the maximal effect.

(Values after patent US8853213B2, “Bicyclic compound for modulating G protein-coupled receptors” (Hanmi Pharm. Co., Ltd, priority 2011, dated 2014).)
